Laboratory results as given in ChEMBL document CHEMBL1909046, “DrugMatrix in vitro pharmacology data”.

Columns and labels:
[1] = DRUGMATRIX: Sodium/nucleoside co-transporter radioligand binding (ligand: nitrobenzylthioinosine); type: cell membranes, Cavia porcellus, Dunkin-Hartley, Cerebral cortex, Membrane; conditions: Not Active = under 50% inhibition at 10 µM
Leukotriene C4 synthase = biological target: T1, Leukotriene C4 synthase (Cavia porcellus, UniProt A6XA80); type: tissue-based, Lung;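 note: enzyme inhibition assay of leukotriene C4 synthase, using LTA4 as the substrate; in other assays of this panel Not Active means under 50% inhibition at 10 µM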
T1 sequence (A6XA80 whole entry): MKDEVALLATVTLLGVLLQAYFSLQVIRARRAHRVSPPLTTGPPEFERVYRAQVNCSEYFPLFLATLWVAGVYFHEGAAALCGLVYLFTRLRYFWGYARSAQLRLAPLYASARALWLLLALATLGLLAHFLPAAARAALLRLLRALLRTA

Nitric oxide synthase 1 = Nitric oxide synthase 1 (Rattus norvegicus, UniProt P29476); type: tissue-based, Cerebellum; note: in other assays of this panel Not Active means under 50% inhibition at 10 µM
Chain of Nitric oxide synthase 1 (P29476 whole entry): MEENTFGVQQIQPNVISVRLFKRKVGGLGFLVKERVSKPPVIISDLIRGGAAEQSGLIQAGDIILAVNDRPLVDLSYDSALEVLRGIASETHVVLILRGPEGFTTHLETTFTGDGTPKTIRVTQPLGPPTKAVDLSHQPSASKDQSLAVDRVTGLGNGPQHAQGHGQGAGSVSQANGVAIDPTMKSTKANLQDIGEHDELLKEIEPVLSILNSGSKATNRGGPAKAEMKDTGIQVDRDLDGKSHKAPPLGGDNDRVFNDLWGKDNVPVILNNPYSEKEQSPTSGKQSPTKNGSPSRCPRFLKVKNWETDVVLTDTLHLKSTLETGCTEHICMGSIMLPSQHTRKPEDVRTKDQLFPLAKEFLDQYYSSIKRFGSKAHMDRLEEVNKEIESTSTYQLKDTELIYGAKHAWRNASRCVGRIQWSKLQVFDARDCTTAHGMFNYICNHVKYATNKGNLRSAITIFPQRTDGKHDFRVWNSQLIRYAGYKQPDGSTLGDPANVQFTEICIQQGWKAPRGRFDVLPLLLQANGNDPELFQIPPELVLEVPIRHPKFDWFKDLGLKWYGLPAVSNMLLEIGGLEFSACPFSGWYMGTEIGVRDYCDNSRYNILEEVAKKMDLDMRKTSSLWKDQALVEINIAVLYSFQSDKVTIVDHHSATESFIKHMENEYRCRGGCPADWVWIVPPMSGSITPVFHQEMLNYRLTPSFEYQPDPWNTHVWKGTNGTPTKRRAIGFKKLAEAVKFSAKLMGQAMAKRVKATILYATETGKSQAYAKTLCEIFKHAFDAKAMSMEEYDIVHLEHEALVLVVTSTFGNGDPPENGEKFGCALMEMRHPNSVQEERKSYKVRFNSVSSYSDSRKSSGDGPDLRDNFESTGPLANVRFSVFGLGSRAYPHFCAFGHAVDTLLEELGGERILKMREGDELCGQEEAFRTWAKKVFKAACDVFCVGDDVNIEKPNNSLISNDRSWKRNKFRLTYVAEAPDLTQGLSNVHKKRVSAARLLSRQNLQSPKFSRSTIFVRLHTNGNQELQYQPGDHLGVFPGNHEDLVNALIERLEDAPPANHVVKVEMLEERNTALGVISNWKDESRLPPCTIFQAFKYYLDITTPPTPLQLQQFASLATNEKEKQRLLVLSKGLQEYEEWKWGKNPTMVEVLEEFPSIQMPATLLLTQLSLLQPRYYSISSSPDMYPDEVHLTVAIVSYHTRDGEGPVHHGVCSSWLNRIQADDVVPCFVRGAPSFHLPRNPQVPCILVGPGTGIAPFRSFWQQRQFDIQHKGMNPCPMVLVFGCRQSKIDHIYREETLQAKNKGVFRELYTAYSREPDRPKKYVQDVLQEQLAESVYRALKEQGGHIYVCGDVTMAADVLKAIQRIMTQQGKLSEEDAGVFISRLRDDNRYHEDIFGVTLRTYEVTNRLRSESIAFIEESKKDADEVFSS

Progesterone receptor = biological target: T2, Progesterone receptor (Bos taurus, UniProt Q690N0); assay: DRUGMATRIX: Progesterone radioligand binding (ligand: [3H] R-5020); type: tissue-based, Uterus; conditions: Not Active = under 50% inhibition at 10 µM
T2 sequence (Q690N0 whole entry): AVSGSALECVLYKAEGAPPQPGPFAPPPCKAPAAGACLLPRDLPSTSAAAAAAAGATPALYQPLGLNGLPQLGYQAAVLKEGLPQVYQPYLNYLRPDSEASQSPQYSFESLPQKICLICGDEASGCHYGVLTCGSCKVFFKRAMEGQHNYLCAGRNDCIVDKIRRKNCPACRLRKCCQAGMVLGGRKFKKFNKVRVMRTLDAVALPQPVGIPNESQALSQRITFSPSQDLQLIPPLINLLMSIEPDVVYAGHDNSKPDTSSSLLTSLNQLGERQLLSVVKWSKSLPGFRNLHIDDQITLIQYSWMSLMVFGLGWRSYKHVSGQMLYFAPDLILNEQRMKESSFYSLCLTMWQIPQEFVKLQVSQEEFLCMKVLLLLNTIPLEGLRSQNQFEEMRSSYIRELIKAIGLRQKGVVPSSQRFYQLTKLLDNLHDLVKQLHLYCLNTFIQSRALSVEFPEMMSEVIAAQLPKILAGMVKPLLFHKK

[2] = biological target: T3, Receptor-type tyrosine-protein phosphatase C (Homo sapiens, UniProt P08575); set-up: species or system Escherichia coli;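 note: inhibition of CD45 enzyme activity measured using DiFMUP as substrate; in other assays of this panel Not Active means under 50% inhibition at 10 µM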
T3 sequence (P08575 whole entry): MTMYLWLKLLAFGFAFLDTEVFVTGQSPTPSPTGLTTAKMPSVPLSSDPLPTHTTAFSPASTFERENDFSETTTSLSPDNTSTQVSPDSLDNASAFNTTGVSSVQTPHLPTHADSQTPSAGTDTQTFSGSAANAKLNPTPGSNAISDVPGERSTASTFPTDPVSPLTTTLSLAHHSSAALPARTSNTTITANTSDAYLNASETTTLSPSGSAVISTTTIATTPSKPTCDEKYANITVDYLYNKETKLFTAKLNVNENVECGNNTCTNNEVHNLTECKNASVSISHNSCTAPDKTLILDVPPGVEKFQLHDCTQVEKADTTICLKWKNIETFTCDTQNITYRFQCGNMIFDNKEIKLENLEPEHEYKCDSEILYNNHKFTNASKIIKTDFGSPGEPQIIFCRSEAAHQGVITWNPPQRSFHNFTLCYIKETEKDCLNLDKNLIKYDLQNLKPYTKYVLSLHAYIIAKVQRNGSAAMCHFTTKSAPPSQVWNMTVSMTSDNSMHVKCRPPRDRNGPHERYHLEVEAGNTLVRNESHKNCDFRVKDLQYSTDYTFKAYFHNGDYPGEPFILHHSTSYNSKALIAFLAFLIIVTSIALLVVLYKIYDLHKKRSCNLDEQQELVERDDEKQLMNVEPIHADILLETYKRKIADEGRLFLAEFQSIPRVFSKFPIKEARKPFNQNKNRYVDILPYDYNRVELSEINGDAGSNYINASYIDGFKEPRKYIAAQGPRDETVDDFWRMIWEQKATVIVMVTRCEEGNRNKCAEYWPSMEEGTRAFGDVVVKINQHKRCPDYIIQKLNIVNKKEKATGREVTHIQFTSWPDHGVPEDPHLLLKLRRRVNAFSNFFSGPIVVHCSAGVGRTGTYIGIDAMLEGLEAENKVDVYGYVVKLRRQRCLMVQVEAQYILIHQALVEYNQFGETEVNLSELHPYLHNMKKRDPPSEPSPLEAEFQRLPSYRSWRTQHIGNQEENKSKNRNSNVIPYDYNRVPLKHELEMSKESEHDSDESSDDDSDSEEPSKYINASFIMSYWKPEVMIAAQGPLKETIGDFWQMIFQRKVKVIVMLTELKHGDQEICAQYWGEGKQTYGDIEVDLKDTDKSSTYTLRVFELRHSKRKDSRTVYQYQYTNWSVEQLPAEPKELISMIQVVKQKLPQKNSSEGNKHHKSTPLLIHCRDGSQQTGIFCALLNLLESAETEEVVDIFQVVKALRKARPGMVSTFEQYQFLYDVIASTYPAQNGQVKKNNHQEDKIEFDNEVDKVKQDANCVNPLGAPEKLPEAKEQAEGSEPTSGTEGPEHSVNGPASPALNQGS

Cytochrome P450 2C19 = Cytochrome P450 2C19 (Homo sapiens, UniProt P33261); conditions: bti-tn-5b1-4; note: in other assays of this panel Not Active means under 50% inhibition at 10 µM
Chain of Cytochrome P450 2C19 (P33261 whole entry): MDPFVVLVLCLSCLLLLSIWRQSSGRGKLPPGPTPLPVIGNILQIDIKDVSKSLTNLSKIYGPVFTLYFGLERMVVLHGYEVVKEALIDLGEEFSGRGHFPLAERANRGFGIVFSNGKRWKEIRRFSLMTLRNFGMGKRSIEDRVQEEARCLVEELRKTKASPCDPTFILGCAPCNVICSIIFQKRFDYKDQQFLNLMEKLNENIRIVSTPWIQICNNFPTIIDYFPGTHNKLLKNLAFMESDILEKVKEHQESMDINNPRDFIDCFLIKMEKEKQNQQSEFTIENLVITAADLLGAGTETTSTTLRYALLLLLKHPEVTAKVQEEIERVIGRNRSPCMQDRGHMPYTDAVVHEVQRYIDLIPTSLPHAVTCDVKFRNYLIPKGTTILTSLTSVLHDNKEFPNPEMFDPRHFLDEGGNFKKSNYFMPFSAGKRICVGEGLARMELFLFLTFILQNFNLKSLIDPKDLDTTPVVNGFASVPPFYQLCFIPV

Estrogen receptor = biological target: T4, Estrogen receptor (Homo sapiens, UniProt P03372); conditions: sf9; note: in other assays of this panel Not Active means under 50% inhibition at 10 µM
T4 sequence (P03372 whole entry): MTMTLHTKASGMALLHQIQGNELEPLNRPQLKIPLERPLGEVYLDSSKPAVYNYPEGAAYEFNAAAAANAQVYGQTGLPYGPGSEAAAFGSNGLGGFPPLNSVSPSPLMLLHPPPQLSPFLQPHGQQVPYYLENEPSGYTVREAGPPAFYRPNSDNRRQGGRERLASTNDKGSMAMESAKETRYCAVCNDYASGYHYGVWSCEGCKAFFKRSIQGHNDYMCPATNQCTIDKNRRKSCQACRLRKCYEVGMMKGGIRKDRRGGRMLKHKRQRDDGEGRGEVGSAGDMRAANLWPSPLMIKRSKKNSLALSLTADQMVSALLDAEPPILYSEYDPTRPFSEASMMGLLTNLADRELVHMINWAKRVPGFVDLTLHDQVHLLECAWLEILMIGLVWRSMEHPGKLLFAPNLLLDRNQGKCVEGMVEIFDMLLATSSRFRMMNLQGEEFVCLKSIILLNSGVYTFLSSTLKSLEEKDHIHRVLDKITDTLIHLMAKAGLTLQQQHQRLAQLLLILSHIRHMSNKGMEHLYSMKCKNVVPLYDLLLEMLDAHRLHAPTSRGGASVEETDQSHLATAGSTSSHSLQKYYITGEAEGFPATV

SMILES	IC50 [1]	Ki [1]	IC50 (Leukotriene C4 synthase)	IC50 (Nitric oxide synthase 1)	IC50 (Progesterone receptor)	IC50 [2]	IC50 (Cytochrome P450 2C19)	Ki (Cytochrome P450 2C19)	IC50 (Estrogen receptor)	IC50 (Progesterone receptor; read-out: IC50) [µM]	Ki (Progesterone receptor; read-out: Ki) [µM]
CCCC(=O)Nc1ccc(OCC(O)CNC(C)C)c(C(C)=O)c1 (centres undefined) [ACEBUTOLOL]	Not Active	Not Active	Not Active	Not Active	Not Active	Not Active	Not Active	Not Active	Not Active	–	–
CC1(C)O[C@@H]2C[C@H]3[C@@H]4C[C@H](F)C5=CC(=O)C=C[C@]5(C)[C@H]4[C@@H](O)C[C@]3(C)[C@]2(C(=O)CO)O1 [FLUNISOLIDE]	Not Active	Not Active	Not Active	Not Active	–	Not Active	Not Active	Not Active	Not Active	0.359	0.047
CCc1c2c(nc3ccc(OC(=O)N4CCC(N5CCCCC5)CC4)cc13)-c1cc3c(c(=O)n1C2)COC(=O)[C@]3(O)CC [IRINOTECAN]	Not Active	Not Active	Not Active	Not Active	Not Active	Not Active	Not Active	Not Active	Not Active	–	–
N=C(Nc1ccccc1)Nc1ccccc1	Not Active	Not Active	Not Active	Not Active	Not Active	Not Active	Not Active	Not Active	Not Active	–	–
N=C(N)NC(=O)c1nc(Cl)c(N)nc1N [AMILORIDE]	Not Active	Not Active	Not Active	Not Active	Not Active	Not Active	Not Active	Not Active	Not Active	–	–
Cc1ccc(S(=O)(=O)NC(=O)NN2CC3CCCC3C2)cc1 (centres undefined) [GLICLAZIDE]	Not Active	Not Active	Not Active	Not Active	Not Active	Not Active	Not Active	Not Active	Not Active	–	–
COc1cccc2c1C(=O)c1c(O)c3c(c(O)c1C2=O)C[C@@](O)(C(=O)CO)C[C@@H]3O[C@H]1C[C@H](N)[C@H](O)[C@H](C)O1 [DOXORUBICIN]	Not Active	Not Active	Not Active	Not Active	Not Active	Not Active	Not Active	Not Active	Not Active	–	–
Cc1cc2cc3c(C)cc(=O)oc3c(C)c2o1 [TRIOXSALEN]	Not Active	Not Active	Not Active	Not Active	Not Active	Not Active	Not Active	Not Active	Not Active	–	–
Cc1ncc([N+](=O)[O-])n1CCO [METRONIDAZOLE]	Not Active	Not Active	Not Active	Not Active	Not Active	Not Active	Not Active	Not Active	Not Active	–	–
OC(CCN1CCCCC1)(c1ccccc1)C1CCCCC1 (centres undefined) [TRIHEXYPHENIDYL]	Not Active	Not Active	Not Active	Not Active	Not Active	Not Active	Not Active	Not Active	Not Active	–	–
CC(=O)OCC(=O)[C@@]1(O)CC[C@H]2[C@@H]3CCC4=CC(=O)CC[C@]4(C)[C@H]3C(=O)C[C@@]21C [CORTISONE ACETATE]	Not Active	Not Active	Not Active	Not Active	Not Active	Not Active	Not Active	Not Active	Not Active	–	–
COc1ccc2[nH]c([S+]([O-])Cc3ncc(C)c(OC)c3C)nc2c1 (centres undefined) [OMEPRAZOLE]	Not Active	Not Active	Not Active	Not Active	Not Active	Not Active	Not Active	Not Active	Not Active	–	–
C[C@@]12C(=O)OC(=O)[C@]1(C)[C@H]1CC[C@@H]2O1 [CANTHARIDIN]	Not Active	Not Active	Not Active	Not Active	Not Active	Not Active	Not Active	Not Active	Not Active	–	–
Nc1c(CC(=O)O)cccc1C(=O)c1ccc(Br)cc1 [BROMFENAC]	Not Active	Not Active	Not Active	Not Active	Not Active	Not Active	Not Active	Not Active	Not Active	–	–
C[C@H]1O[C@@H](O[C@H]2[C@@H](O)C[C@H](O[C@H]3[C@@H](O)C[C@H](O[C@H]4CC[C@@]5(C)[C@H](CC[C@@H]6[C@@H]5CC[C@]5(C)[C@@H](C7=CC(=O)OC7)CC[C@]65O)C4)O[C@@H]3C)O[C@@H]2C)C[C@H](O)[C@@H]1O [DIGITOXIN]	Not Active	Not Active	Not Active	Not Active	Not Active	Not Active	Not Active	Not Active	Not Active	–	–
C[N+](C)(C)CCO.[Cl-] [CHOLINE CHLORIDE]	Not Active	Not Active	Not Active	Not Active	Not Active	Not Active	Not Active	Not Active	Not Active	–	–
CN(C)c1ccc(C(=C2C=CC(=[N+](C)C)C=C2)c2ccc(N(C)C)cc2)cc1.[Cl-] [GENTIAN VIOLET]	Not Active	Not Active	Not Active	Not Active	Not Active	Not Active	Not Active	Not Active	Not Active	–	–
